Reference: the NIST ThermoML archive (doi:10.1021/acs.jced.6b00460)
Numbers after ± are expanded uncertainties.

Settings: 101.33 kPa, Liquid; for speed of sound: Sing-around technique in a fixed-path interferometer; for mass density: Vibrating tube method

For `CCCCCC[n+]1ccc(C)cc1.[Br-]` [1-hexyl-4-methylpyridinium bromide], the speed of sound (308.15 K) was 1589.8 ± 2.7 m/s, the mass density (308.15 K) was 1214.46 ± 2.3 kg/m3 and the speed of sound (318.15 K) was 1558.7 ± 2.7 m/s. The mass density (318.15 K) was 1207.88 ± 2.3 kg/m3.
Work on `CCCCCC[n+]1ccccc1.[Br-]` [1-hexylpyridinium bromide] yielded a speed of sound (308.15 K) of 1592.5 ± 2.7 m/s, a mass density (308.15 K) of 1235.72 ± 2.4 kg/m3 and a speed of sound (318.15 K) of 1557.2 ± 2.7 m/s. For the same compound, the mass density (318.15 K) was 1229.23 ± 2.3 kg/m3.
With `CCCCCC[n+]1ccccc1.[Cl-]` [1-hexylpyridinium chloride] the speed of sound (308.15 K) was 1570.7 ± 2.7 m/s, the mass density (308.15 K) was 1146.65 ± 2.3 kg/m3 and the speed of sound (318.15 K) was 1549.2 ± 2.7 m/s. The mass density (318.15 K) was 1142.77 ± 2.3 kg/m3.
With `CCCCCCCC[n+]1ccccc1.[Br-]` [1-octylpyridinium bromide] the speed of sound (308.15 K) was 1507.1 ± 2.6 m/s, the mass density (308.15 K) was 1168.14 ± 2.3 kg/m3 and the speed of sound (318.15 K) was 1478.3 ± 2.6 m/s. It also gave a mass density (318.15 K) of 1161.81 ± 2.3 kg/m3.
For `CCCCCCCC[n+]1ccc(C)cc1.[Cl-]` [4-methyl-1-octylpyridinium chloride], the speed of sound (308.15 K) was 1445.5 ± 2.6 m/s, the mass density (308.15 K) was 1107.79 ± 2.2 kg/m3 and the speed of sound (318.15 K) was 1411.7 ± 2.6 m/s. For the same compound, the mass density (318.15 K) was 1102.01 ± 2.2 kg/m3.
`CCCCCCCC[n+]1ccccc1.[Cl-]` [N-octylpyridinium chloride] gave a speed of sound (308.15 K) of 1482.6 ± 2.6 m/s, a mass density (308.15 K) of 1128.78 ± 2.2 kg/m3 and a speed of sound (318.15 K) of 1448.6 ± 2.6 m/s. For the same compound, the mass density (318.15 K) was 1123.06 ± 2.2 kg/m3.
